Patent US20100311714A1, “1H-IMIDAZO[4,5-c]QUINOLINONE COMPOUNDS” (priority 2009, published 2010)

Molecular target: T1, PI3K delta (Homo sapiens, UniProt O00329)
T1 construct: for the full-length p110-d subunit are generated and fused by overlapping PCR; His tag (C); made in house; host or cells: baculovirus BV1060; Tn5 (Trichoplusia ni) or TiniPro insect cells
Experiment: PI3K delta kinase assay (Kinase-Glo luminescence)
Format: biochemical
Conditions: read-out: EPK_PI3Kdelta/IC50
Method in brief: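 Kinase-Glo ATP-depletion luminescence using 10 nM p85(iSH2)-linker-p110δ full-length His-tag construct from insect cells, with 1 μM ATP and 10 μg/mL phosphatidylinositol in 10 mM Tris pH 7.5, 3 mM MgCl2, 50 mM NaCl, 0.05% CHAPS, 1 mM DTT. 60 min room temperature; IC50 from 4-parameter logistic fit over 8 concentrations.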

T1 sequence (O00329 with tags, fused parts or gaps limits assumed): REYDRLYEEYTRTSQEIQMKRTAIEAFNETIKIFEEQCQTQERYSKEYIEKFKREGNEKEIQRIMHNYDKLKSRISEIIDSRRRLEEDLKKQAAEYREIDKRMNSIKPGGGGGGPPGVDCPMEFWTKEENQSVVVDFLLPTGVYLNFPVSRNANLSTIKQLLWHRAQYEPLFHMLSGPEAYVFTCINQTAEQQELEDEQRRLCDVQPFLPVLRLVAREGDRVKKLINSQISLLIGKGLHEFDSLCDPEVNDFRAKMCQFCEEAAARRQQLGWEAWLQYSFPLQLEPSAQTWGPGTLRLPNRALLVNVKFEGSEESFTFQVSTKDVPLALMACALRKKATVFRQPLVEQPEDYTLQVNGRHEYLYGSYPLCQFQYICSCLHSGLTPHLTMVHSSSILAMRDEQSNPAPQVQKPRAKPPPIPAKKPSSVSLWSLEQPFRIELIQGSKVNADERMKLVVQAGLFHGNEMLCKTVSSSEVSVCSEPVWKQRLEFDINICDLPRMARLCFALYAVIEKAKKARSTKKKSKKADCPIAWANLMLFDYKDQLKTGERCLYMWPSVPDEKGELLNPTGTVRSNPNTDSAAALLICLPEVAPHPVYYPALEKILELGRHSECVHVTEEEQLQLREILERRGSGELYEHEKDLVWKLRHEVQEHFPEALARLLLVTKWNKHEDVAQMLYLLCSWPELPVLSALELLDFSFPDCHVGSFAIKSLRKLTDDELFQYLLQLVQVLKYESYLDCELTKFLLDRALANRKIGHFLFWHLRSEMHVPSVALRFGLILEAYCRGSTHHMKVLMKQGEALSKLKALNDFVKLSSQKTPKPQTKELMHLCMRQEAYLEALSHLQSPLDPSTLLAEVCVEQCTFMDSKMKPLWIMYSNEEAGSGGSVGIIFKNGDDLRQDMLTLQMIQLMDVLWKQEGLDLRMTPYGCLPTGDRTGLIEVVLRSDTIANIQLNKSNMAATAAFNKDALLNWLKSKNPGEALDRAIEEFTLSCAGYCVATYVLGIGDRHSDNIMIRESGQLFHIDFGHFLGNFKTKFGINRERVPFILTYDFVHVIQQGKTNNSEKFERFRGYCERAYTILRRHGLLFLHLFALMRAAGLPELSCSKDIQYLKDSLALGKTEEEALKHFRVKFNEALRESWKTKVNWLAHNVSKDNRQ

IC50 | SMILES
118 nM | COc1cc(-c2ccc3ncc4c(c3c2)n(-c2ccc(N)nc2C)c(=O)n4C)cnc1CO [Example 30.1, 1-(6-Amino-2-methyl-pyridin-3-yl)-8-(6-hydroxymethyl-5-methoxy-pyridin-3-yl)-3-methyl-1,3-dihydro-imidazo[4,5-c]quinolin-2-one]
148 nM | Cc1nc(F)ccc1-n1c(=O)n(C)c2cnc3ccc(-c4cncc(N5CCC5)c4)cc3c21 [Example 7.6, 8-(5-Azetidin-1-yl-pyridin-3-yl)-1-(6-fluoro-2-methyl-pyridin-3-yl)-3-methyl-1,3-dihydro-imidazo[4,5-c]quinolin-2-one]
53 nM | COCc1ncc(-c2ccc3ncc4c(c3c2)n(-c2cccnc2C)c(=O)n4C)cc1OC [Example 2.30, 8-(5-Methoxy-6-methoxymethyl-pyridin-3-yl)-3-methyl-1-(2-methyl-pyridin-3-yl)-1,3-dihydro-imidazo[4,5-c]quinolin-2-one]
248 nM | COc1cc(-c2ccc3ncc4c(c3c2)n(-c2ccc(N3CC(F)(F)C3)nc2C)c(=O)n4C)cnc1CO [Example 24.4, 1-[6-(3,3-Difluoro-azetidin-1-yl)-2-methyl-pyridin-3-yl]-8-(6-hydroxymethyl-5-methoxy-pyridin-3-yl)-3-methyl-1,3-dihydro-imidazo[4,5-c]quinolin-2-one]
287 nM | CCNc1cc(-c2ccc3ncc4c(c3c2)n(-c2ccc(N(C)CCO)nc2C)c(=O)n4C)cnc1CO [Example 26.3, 8-(5-Ethylamino-6-hydroxymethyl-pyridin-3-yl)-1-{6-[(2-hydroxy-ethyl)-methyl-amino]-2-methyl-pyridin-3-yl}-3-methyl-1,3-dihydro-imidazo[4,5-c]quinolin-2-one]
311 nM | COc1ccc(-n2c(=O)n(C)c3cnc4ccc(-c5cnc(CO)c(OC)c5)cc4c32)c(OC)n1 [Example 8.14, 1-(2,6-Dimethoxy-pyridin-3-yl)-8-(6-hydroxymethyl-5-methoxy-pyridin-3-yl)-3-methyl-1,3-dihydro-imidazo[4,5-c]quinolin-2-one]
35 nM | COc1cc(-c2ccc3ncc4c(c3c2)n(-c2ccc(N3CC[C@H](O)C3)nc2C)c(=O)n4C)cnc1CO [Example 32.7, 8-(6-Hydroxymethyl-5-methoxy-pyridin-3-yl)-1-[6-((S)-3-hydroxy-pyrrolidin-1-yl)-2-methyl-pyridin-3-yl]-3-methyl-1,3-dihydro-imidazo[4,5-c]quinolin-2-one]
42 nM | COc1cc(-c2ccc3ncc4c(c3c2)n(-c2ccc(N3CCC(OC)C3)nc2C)c(=O)n4C)cnc1CO (stereo not shown) [Example 28.3, 8-(6-Hydroxymethyl-5-methoxy-pyridin-3-yl)-1-[6-(3-methoxy-pyrrolidin-1-yl)-2-methyl-pyridin-3-yl]-3-methyl-1,3-dihydro-imidazo[4,5-c]quinolin-2-one]
186 nM | COc1cc(-c2ccc3ncc4c(c3c2)n(-c2ccc(F)nc2C)c(=O)n4C)cnc1CO [Example 7.10, 1-(6-Fluoro-2-methyl-pyridin-3-yl)-8-(6-hydroxymethyl-5-methoxy-pyridin-3-yl)-3-methyl-1,3-dihydro-imidazo[4,5-c]quinolin-2-one]
79 nM | COCc1ncc(-c2ccc3ncc4c(c3c2)n(-c2ccc(F)nc2C)c(=O)n4C)cc1OC [Example 7.7, 1-(6-Fluoro-2-methyl-pyridin-3-yl)-8-(5-methoxy-6-methoxymethyl-pyridin-3-yl)-3-methyl-1,3-dihydro-imidazo[4,5-c]quinolin-2-one]
272 nM | COc1cc(-c2ccc3ncc4c(c3c2)n(-c2ccc(N3CCCC3)nc2C)c(=O)n4C)cnc1CO [Example 25.4, 8-(6-Hydroxymethyl-5-methoxy-pyridin-3-yl)-3-methyl-1-(2-methyl-6-pyrrolidin-1-yl-pyridin-3-yl)-1,3-dihydro-imidazo[4,5-c]quinolin-2-one]

The remaining lines, values behind:

SMILES | IC50
CCNc1cc(-c2ccc3ncc4c(c3c2)n(-c2ccc(N3CCCC3)nc2C)c(=O)n4C)cnc1CO [Example 25.5, 8-(5-Ethylamino-6-hydroxymethyl-pyridin-3-yl)-3-methyl-1-(2-methyl-6-pyrrolidin-1-yl-pyridin-3-yl)-1,3-dihydro-imidazo[4,5-c]quinolin-2-one] | 33 nM
Cc1nc(N2CCC(O)C2)ccc1-n1c(=O)n(C)c2cnc3ccc(-c4cnc(N)c(C(F)(F)F)c4)cc3c21 (stereo not shown) [Example 27.3, 8-(6-Amino-5-trifluoromethyl-pyridin-3-yl)-1-[6-(3-hydroxy-pyrrolidin-1-yl)-2-methyl-pyridin-3-yl]-3-methyl-1,3-dihydro-imidazo[4,5-c]quinolin-2-one] | < 3 nM
COc1ccc(-n2c(=O)n(C)c3cnc4ccc(-c5cncc(N6CCC6)c5)cc4c32)c(OC)n1 [Example 8.11, 8-(5-Azetidin-1-yl-pyridin-3-yl)-1-(2,6-dimethoxy-pyridin-3-yl)-3-methyl-1,3-dihydro-imidazo[4,5-c]quinolin-2-one] | 126 nM
COc1ccc(-n2c(=O)n(C)c3cnc4ccc(-c5cnc(C(OC)OC)c(OC)c5)cc4c32)c(OC)n1 [Example 8.13, 8-(6-Dimethoxymethyl-5-methoxy-pyridin-3-yl)-1-(2,6-dimethoxy-pyridin-3-yl)-3-methyl-1,3-dihydro-imidazo[4,5-c]quinolin-2-one] | 167 nM
CNc1ncc(-c2ccc3ncc4c(c3c2)n(-c2ccc(N3CC[C@@H](O)C3)nc2C)c(=O)n4C)cn1 [Example 34.1, 1-[6-((R)-3-Hydroxy-pyrrolidin-1-yl)-2-methyl-pyridin-3-yl]-3-methyl-8-(2-methylamino-pyrimidin-5-yl)-1,3-dihydro-imidazo[4,5-c]quinolin-2-one] | 42 nM
CCOc1ccc(-c2ccc3ncc4c(c3c2)n(-c2ccc(N3CCC(O)C3)nc2C)c(=O)n4C)cn1 (stereo not shown) [Example 27.4, 8-(6-Ethoxy-pyridin-3-yl)-1-[6-(3-hydroxy-pyrrolidin-1-yl)-2-methyl-pyridin-3-yl]-3-methyl-1,3-dihydro-imidazo[4,5-c]quinolin-2-one] | 193 nM
Cc1nc(N2CC(O)C2)ccc1-n1c(=O)n(C)c2cnc3ccc(-c4cncc(C(C)(C)O)c4)cc3c21 [Example 29.1, 1-[6-(3-Hydroxy-azetidin-1-yl)-2-methyl-pyridin-3-yl]-8-[5-(1-hydroxy-1-methyl-ethyl)-pyridin-3-yl]-3-methyl-1,3-dihydro-imidazo[4,5-c]quinolin-2-one] | 19 nM
CNc1ncc(-c2ccc3ncc4c(c3c2)n(-c2ccc(N3CC[C@H](O)C3)nc2C)c(=O)n4C)cc1Cl [Example 32.4, 8-(5-Chloro-6-methylamino-pyridin-3-yl)-1-[6-((S)-3-hydroxy-pyrrolidin-1-yl)-2-methyl-pyridin-3-yl]-3-methyl-1,3-dihydro-imidazo[4,5-c]quinolin-2-one] | 5 nM
CNc1ncc(-c2ccc3ncc4c(c3c2)n(-c2ccc(N3CCC(OC)C3)nc2C)c(=O)n4C)cn1 (stereo not shown) [Example 28.2, 1-[6-(3-Methoxy-pyrrolidin-1-yl)-2-methyl-pyridin-3-yl]-3-methyl-8-(2-methylamino-pyrimidin-5-yl)-1,3-dihydro-imidazo[4,5-c]quinolin-2-one] | 159 nM
Cc1nc(N2CCC(O)C2)ccc1-n1c(=O)n(C)c2cnc3ccc(-c4cncc(C(C)(C)O)c4)cc3c21 (stereo not shown) [Example 27.5, 8-[5-(1-Hydroxy-1-methyl-ethyl)-pyridin-3-yl]-1-[6-(3-hydroxy-pyrrolidin-1-yl)-2-methyl-pyridin-3-yl]-3-methyl-1,3-dihydro-imidazo[4,5-c]quinolin-2-one] | 148 nM
CCNc1cc(-c2ccc3ncc4c(c3c2)n(-c2ccc(N3CC(F)(F)C(F)(F)C3)nc2C)c(=O)n4C)cnc1CO [Example 35.2, 8-(5-Ethylamino-6-hydroxymethyl-pyridin-3-yl)-3-methyl-1-[2-methyl-6-(3,3,4,4-tetrafluoro-pyrrolidin-1-yl)-pyridin-3-yl]-1,3-dihydro-imidazo[4,5-c]quinolin-2-one] | 10 nM

Same assay, conditions: read-out: PI3Kdelta/IC50

IC50 | SMILES
221 nM | CNC(=O)c1ccc(-c2ccc3ncc4c(c3c2)n(-c2cccnc2C)c(=O)n4C)cc1 [Example 2.4, N-Methyl-4-[3-methyl-1-(2-methyl-pyridin-3-yl)-2-oxo-2,3-dihydro-1H-imidazo[4,5-c]quinolin-8-yl]-benzamide]
78 nM | Cn1c(=O)n(-c2cccnc2F)c2c3cc(-c4cnc5[nH]ccc5c4)ccc3ncc21 [Example 6.3, 1-(2-Fluoro-pyridin-3-yl)-3-methyl-8-(1H-pyrrolo[2,3-b]pyridin-5-yl)-1,3-dihydro-imidazo[4,5-c]quinolin-2-one]
35 nM | Cc1ncccc1-n1c(=O)n(C)c2cnc3ccc(-c4cnc5[nH]ccc5c4)cc3c21 [Example 2.8, 3-Methyl-1-(2-methyl-pyridin-3-yl)-8-(1H-pyrrolo[2,3-b]pyridin-5-yl)-1,3-dihydro-imidazo[4,5-c]quinolin-2-one]
